# Reference: patent US20050271630A1, “Method for treating cancer” (MEDINET Co., Ltd., priority 2004, published 2005)
# Several values for one entry are separate records, joined by “and”; a condition that tells them apart may be missing. Equal values may be shown once. Entries after “also recorded” stand apart in the source; their conditions may differ. Where a name gives a salt, the structure may show the parent alone. Read-outs that look alike come from different tables or passages of the source.
# Assays:
# [1] = gefitinib alone, 104 cases, Phase 2 study; cited from earlier work
# [2] = tested on: lung carcinoma (adenocarcinoma); test: Single case: CD3-LAK plus IRESSA (gefitinib), person; conditions: for Response at examination: gefitinib 250 mg/day + CD3-LAK
# [3] = tested on: non-small cell lung carcinoma; test: Activated autologous lymphocyte therapy combined with gefitinib or conventional chemotherapy, 15 cases at Seta Clinic; type: in vivo, human
# Protocol: Next, studies were conducted for comparing a combination therapy with a conventional chemotherapy other than gefitinib and the method of the present invention.
# The response ratio was 46.7%. […] The effective ratio including this was 53.3%. The highest number of administrations was 35, and 10.4 times of treatments on average were conducted.
# [4] = tested on: non-small cell lung carcinoma
# [5] = tested on: GIST (gastrointestinal stromal tumors); conditions: for Side effects: imatinib mesylate 200 mg/day
# [6] = 7 chemotherapy / 8 gefitinib cases
# [7] = 7 conventional chemotherapy cases / 8 gefitinib cases, with activated autologous lymphocyte therapy
# [8] = of 18 cases, gefitinib + CD3-LAK
# [9] = of 18 cases, gefitinib + activated autologous lymphocyte therapy
smiles,measurement,setting,value
COc1cc2ncnc(Nc3ccc(F)c(Cl)c3)c2cc1OCCCN1CCOCC1 [gefitinib],Response ratio,[1],18%
same,Lesioned site in CT image,[2]; CT at examination on May 9 versus start of combination therapy (FIGS. 2 and 3),almost disappeared
same,Response at examination,"[2]; examination on Feb. 13, 2003, therapy started Oct. 2002",considerable response
same,Response at examination,[2]; examination on May 9 (2003),remarkable response
same,Evaluation: Effective (percent),[3]; [6],(62.5%)
same,Evaluation: No effect (percent),[3]; [6],(37.5%)
same,"The number of cases, Complete response",[3]; [7],0 cases
same,"The number of cases, Long no change",[3]; [7],0 cases
same,"The number of cases, No change",[3]; [7],3 cases
same,"The number of cases, Partial response",[3]; [7],5 cases
same,"The number of cases, Progressive disease",[3]; [7],0 cases
same,Evaluation: Effective (number of cases),"[3]; complete + partial response + long no change, 7 chemotherapy / 8 gefitinib cases",Effective 5 cases
same,Cases still alive,[3]; gefitinib group (cases 8-15),7 cases
same,Longest period of survival confirmed,[3]; gefitinib group (cases 8-15),743 days
same,Outcome at the end,"[3]; individual cases 1-15, at end of trace period",Alive
same,Evaluation: No effect (number of cases),"[3]; no change + progressive disease, 7 chemotherapy / 8 gefitinib cases",3 cases
same,Evaluation: No effect (percent),[4]; 18 cases,(38.9%)
same,New side effect caused by the combined use of the activated autologous lymphocytes,"[4]; 18 cases, gefitinib + CD3-LAK",no new side effect
same,"Side effects: diarrhea, percent","[4]; 18 cases, gefitinib + CD3-LAK",33%
same,"Side effects: nausea, percent","[4]; 18 cases, gefitinib + CD3-LAK",17%
same,"Side effects: skin symptoms (eruption and dry skin), percent","[4]; 18 cases, gefitinib + CD3-LAK",89%
same,Outcome at the end,"[4]; individual cases 1-18, at end of trace period, gefitinib 250 mg/day + CD3-LAK",Alive (17×) and Dead
same,Evaluation: Effective (number of cases),"[4]; of 18 cases, complete + partial response",Effective 11 cases
same,"Side effects: diarrhea, cases",[4]; [8],6 cases
same,"Side effects: nausea, cases",[4]; [8],3 cases
same,"Side effects: skin symptoms (eruption and dry skin), cases",[4]; [8],16 cases
same,"The number of cases, No change",[4]; [9],6 cases
same,"The number of cases, Partial response",[4]; [9],11 cases
same,"The number of cases, Progressive disease",[4]; [9],1 cases
same,Evaluation: No effect (number of cases),"[4]; of 18 cases, no change + progressive disease",No effect 7 cases
Cc1ccc(NC(=O)c2ccc(CN3CCN(C)CC3)cc2)cc1Nc1nccc(-c2cccnc2)n1 [imatinib mesylate],Duration of partial response since the start of the combination therapy,[5]; Patient 2,21 months
same,"Increase in liver enzyme levels, GOT",[5]; Patient 2,58 U/ml
same,"Increase in liver enzyme levels, GPT",[5]; Patient 2,43 U/ml
same,Side effects,[5]; Patient 2,itching with eczema of the face and limbs; also recorded: stomach discomfort; also recorded: diarrhea
same,CA12-5 level,"[5]; Patient 2, three months after starting the therapy, 151 U/ml at start",26 U/ml
same,Time without tumor progression since start of combination therapy,[5]; Patient 3,25 months
same,Side effects,"[5]; Patient 3, combination therapy",diarrhea
same,Side effects at the time of administration,"[5]; Patient 3, imatinib mesylate 100 to 300 mg per day oral",side effects on their digestive organs
same,Change of foci,"[5]; Patient 3, one month after the MRI (one year and two months)",decreased slightly
same,Interpretation of PET,"[5]; Patient 3, one year and five months after starting the therapy",no extraordinary accumulation
same,Size of foci in MRI,"[5]; Patient 3, one year and one month after starting the combination therapy, two foci",1.1 cm and 0.6 cm
same,Tumor progression,"[5]; Patient 3, since the combination therapy was started",had not progressed
